Structures are written as SMILES.

Experimental findings from patent publication US7932270B2 (Cytokinetics, Inc., priority 2006, dated 2011) are described below.

The test addresses T1, chicken gizzard smooth muscle myosin subfragment-1 chemically crosslinked to cardiac or skeletal actin (Gallus gallus, UniProt P10587).
T1 construct: chicken gizzard smooth muscle myosin subfragment-1; from tissue; host or cells: chicken gizzard
Put plainly: Smooth muscle myosin ATPase dose response assay (pyruvate kinase/horseradish peroxidase/pyruvate oxidase-coupled, amplex red fluorescence). It is filed as biochemical. As to conditions: read-out: IC50 Arithmetic Mean. In a few lines:
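Inhibition is measured in a peroxidase/pyruvate oxidase-linked format at pH 7.00 and 22° C, 0.15 mM ATP final. Myosin input is titrated to a target turnover since active fraction differs between preparations.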

T1 sequence (P02607 2-151): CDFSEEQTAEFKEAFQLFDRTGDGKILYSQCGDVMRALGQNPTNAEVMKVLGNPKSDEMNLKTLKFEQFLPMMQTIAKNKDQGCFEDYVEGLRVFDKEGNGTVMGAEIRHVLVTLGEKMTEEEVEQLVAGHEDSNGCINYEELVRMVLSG
T1 sequence (P10587 84-789): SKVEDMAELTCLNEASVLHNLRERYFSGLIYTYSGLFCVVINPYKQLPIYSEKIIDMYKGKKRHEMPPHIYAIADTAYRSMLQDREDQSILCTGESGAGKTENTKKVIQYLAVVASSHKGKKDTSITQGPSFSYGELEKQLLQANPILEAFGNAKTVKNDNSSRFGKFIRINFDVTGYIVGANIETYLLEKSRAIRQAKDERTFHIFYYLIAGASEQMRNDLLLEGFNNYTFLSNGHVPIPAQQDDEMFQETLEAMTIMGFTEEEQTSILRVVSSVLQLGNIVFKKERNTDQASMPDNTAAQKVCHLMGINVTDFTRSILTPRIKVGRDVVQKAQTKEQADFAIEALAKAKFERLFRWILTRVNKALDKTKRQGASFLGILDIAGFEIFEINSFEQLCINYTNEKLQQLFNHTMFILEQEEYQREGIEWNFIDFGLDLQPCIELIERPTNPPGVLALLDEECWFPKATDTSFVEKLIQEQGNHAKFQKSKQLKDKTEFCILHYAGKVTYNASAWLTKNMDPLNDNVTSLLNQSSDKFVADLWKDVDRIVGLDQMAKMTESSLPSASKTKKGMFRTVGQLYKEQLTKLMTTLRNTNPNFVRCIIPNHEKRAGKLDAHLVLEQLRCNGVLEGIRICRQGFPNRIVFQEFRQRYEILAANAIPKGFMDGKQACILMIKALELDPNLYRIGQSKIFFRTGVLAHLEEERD

For the molecule `N#Cc1ccccc1-c1ccc(C(=O)NC[C@H]2CCCN2C(=O)CCCN)c(NCCc2cccc(F)c2)n1` [N-{[(2R)-1-(4-aminobutanoyl)pyrrolidin-2-yl]methyl}(6-(2-cyanophenyl)-2-{[2-(3-fluorophenyl)ethyl]amino}(3-pyridyl))carboxamide], the IC50 was 29 nM.

As for `N#Cc1ccccc1-c1nc(NCCc2cccc(F)c2)c(C(=O)NC[C@H]2CCCN2C(=O)CCCN)cc1F` [N-{[(2R)-1-(4-aminobutanoyl)pyrrolidin-2-yl]methyl}(6-(2-cyanophenyl)-5-fluoro-2-{[2-(3-fluorophenyl)ethyl]amino}(3-pyridyl))carboxamide], the 50% inhibitory concentration (IC50) was determined as 38 nM.

Consider `N#Cc1ccccc1-c1ccc(C(=O)NC[C@H]2CCCN2C(=O)CCCN)c(NCCC2=CCCCC2)n1` [N-{[(2R)-1-(4-aminobutanoyl)pyrrolidin-2-yl]methyl}{6-(2-cyanophenyl)-2-[(2-cyclohex-1-enylethyl)amino](3-pyridyl)}carboxamide], for which the IC50 was determined as 133 nM.

With `N#Cc1ccccc1-c1ccc(C(=O)NC[C@H]2CCCN2C(=O)CCCN)c(NCCc2ccccc2)n1` [N-{[(2R)-1-(4-aminobutanoyl)pyrrolidin-2-yl]methyl}{6-(2-cyanophenyl)-2-[(2-phenylethyl)amino](3-pyridyl)}carboxamide], the IC50 turned out to be 62 nM.

With `N#Cc1ccccc1-c1ccc(C(=O)NC[C@H]2CCC(=O)N2CCCCN)c(NCCc2cccc(F)c2)n1` [N-{[(2R)-1-(4-aminobutyl)-5-oxopyrrolidin-2-yl]methyl}(6-(2-cyanophenyl)-2-{[2-(3-fluorophenyl)ethyl]amino}(3-pyridyl))carboxamide], the IC50 was 51.7 nM.

As for `N#Cc1ccccc1-c1ccc(C(=O)NC[C@H]2CCCC(=O)N2CCCCN)c(NCCc2cccc(F)c2)n1` [N-{[(2R)-1-(4-aminobutyl)-6-oxo(2-piperidyl)]methyl}(6-(2-cyanophenyl)-2-{[2-(3-fluorophenyl)ethyl]amino}(3-pyridyl))carboxamide], the IC50 is 32 nM.

For `N#Cc1ccccc1-c1ccc(C(=O)NC[C@H]2CCN2C(=O)CCCO)c(NCCc2cccc(F)c2)n1` [N-{[(2R)-1-(4-hydroxybutanoyl)azetidin-2-yl]methyl}(6-(2-cyanophenyl)-2-{[2-(3-fluorophenyl)ethyl]amino}(3-pyridyl))carboxamide], the IC50 is 60 nM.

As for `Cn1cc(-c2ccc(C(=O)NC[C@H]3CCCN3C(=O)CCCO)c(NCCc3cccc(F)c3)n2)cn1` [N-{[(2R)-1-(4-hydroxybutanoyl)pyrrolidin-2-yl]methyl}(2-{[2-(3-fluorophenyl)ethyl]amino}-6-(1-methylpyrazol-4-yl)(3-pyridyl))carboxamide], the IC50 was 1460 nM.

As to `O=C(NC[C@H]1CCCN1C(=O)CCCO)c1ccc(-c2cn[nH]c2)nc1NCCc1cccc(F)c1` [N-{[(2R)-1-(4-hydroxybutanoyl)pyrrolidin-2-yl]methyl}(2-{[2-(3-fluorophenyl)ethyl]amino}-6-pyrazol-4-yl(3-pyridyl))carboxamide], the IC50 amounted to 963 nM.

Consider `Cn1cc(-c2nc(NCCc3cccc(F)c3)c(C(=O)NC[C@H]3CCCN3C(=O)CCCO)cc2F)cn1` [N-{[(2R)-1-(4-hydroxybutanoyl)pyrrolidin-2-yl]methyl}(5-fluoro-2-{[2-(3-fluorophenyl)ethyl]amino}-6-(1-methylpyrazol-4-yl)(3-pyridyl))carboxamide], for which the IC50 amounted to 245 nM.

Take `N#Cc1ccccc1-c1ccc(C(=O)NC[C@H]2CCCN2C(=O)CCCO)c(NCCc2cccc(F)c2)n1` [N-{[(2R)-1-(4-hydroxybutanoyl)pyrrolidin-2-yl]methyl}(6-(2-cyanophenyl)-2-{[2-(3-fluorophenyl)ethyl]amino}(3-pyridyl))carboxamide]: the IC50 came out at 85 nM.

As for `N#Cc1ccccc1-c1ccc(C(=O)NC[C@H]2CCCN2C(=O)CCCCN)c(NCCc2cccc(F)c2)n1` [N-{[(2R)-1-(5-aminopentanoyl)pyrrolidin-2-yl]methyl}(6-(2-cyanophenyl)-2-{[2-(3-fluorophenyl)ethyl]amino}(3-pyridyl))carboxamide], the IC50 came out at 99 nM.

For `N#Cc1ccccc1-c1ccc(C(=O)NC[C@H]2CCC(=O)N2CCCCCN)c(NCCc2cccc(F)c2)n1` [N-{[(2R)-1-(5-aminopentyl)-5-oxopyrrolidin-2-yl]methyl}(6-(2-cyanophenyl)-2-{[2-(3-fluorophenyl)ethyl]amino}(3-pyridyl))carboxamide], the IC50 came to 39 nM.

For the molecule `N#Cc1ccccc1-c1ccc(C(=O)NC[C@H]2CCCCN2C(=O)[C@H](N)CN)c(NCCc2cccc(F)c2)n1` [N-{[(2R)-1-((2R)-2,3-diaminopropanoyl)(2-piperidyl)]methyl}(6-(2-cyanophenyl)-2-{[2-(3-fluorophenyl)ethyl]amino}(3-pyridyl))carboxamide], the IC50 worked out at 161 nM.

As for `N#Cc1ccccc1-c1ccc(C(=O)NC[C@H]2CCCCN2C(=O)[C@H](N)CCN)c(NCCc2cccc(F)c2)n1` [N-{[(2R)-1-((2R)-2,4-diaminobutanoyl)(2-piperidyl)]methyl}(6-(2-cyanophenyl)-2-{[2-(3-fluorophenyl)ethyl]amino}(3-pyridyl))carboxamide], the IC50 is 399 nM.

In the case of `N#Cc1ccccc1-c1ccc(C(=O)NC[C@H]2CCCCN2C(=O)[C@H](N)CCCN)c(NCCc2cccc(F)c2)n1` [N-{[(2R)-1-((2R)-2,5-diaminopentanoyl)(2-piperidyl)]methyl}(6-(2-cyanophenyl)-2-{[2-(3-fluorophenyl)ethyl]amino}(3-pyridyl))carboxamide], the IC50 was determined as 456 nM.

As to `N#Cc1ccccc1-c1ccc(C(=O)NC[C@H]2CCN2C(=O)[C@H](N)CO)c(NCCc2cccc(F)c2)n1` [N-{[(2R)-1-((2R)-2-amino-3-hydroxypropanoyl)azetidin-2-yl]methyl}(6-(2-cyanophenyl)-2-{[2-(3-fluorophenyl)ethyl]amino}(3-pyridyl))carboxamide], the IC50 was found to be 83 nM.

For `C[C@@H](N)C(=O)N1CCCC[C@@H]1CNC(=O)c1ccc(-c2ccccc2C#N)nc1NCCc1cccc(F)c1` [N-{[(2R)-1-((2R)-2-aminopropanoyl)(2-piperidyl)]methyl}(6-(2-cyanophenyl)-2-{[2-(3-fluorophenyl)ethyl]amino}(3-pyridyl))carboxamide], the IC50 came to 261 nM.

In the case of `C[C@@H](N)C(=O)N1CCC[C@@H]1CNC(=O)c1ccc(-c2ccccc2C#N)nc1NCCc1cccc(F)c1` [N-{[(2R)-1-((2R)-2-aminopropanoyl)pyrrolidin-2-yl]methyl}(6-(2-cyanophenyl)-2-{[2-(3-fluorophenyl)ethyl]amino}(3-pyridyl))carboxamide], the IC50 worked out at 166 nM.

`N#Cc1ccccc1-c1ccc(C(=O)NC[C@H]2CCCN2C(=O)[C@@H](N)CN)c(NCCc2cccc(F)c2)n1` [N-{[(2R)-1-((2S)-2,3-diaminopropanoyl)pyrrolidin-2-yl]methyl}(6-(2-cyanophenyl)-2-{[2-(3-fluorophenyl)ethyl]amino}(3-pyridyl))carboxamide]: the IC50 was 59 nM.

As to `N#Cc1ccccc1-c1ccc(C(=O)NC[C@H]2CCCCN2C(=O)[C@@H](N)CCCN)c(NCCc2cccc(F)c2)n1` [N-{[(2R)-1-((2S)-2,5-diaminopentanoyl)(2-piperidyl)]methyl}(6-(2-cyanophenyl)-2-{[2-(3-fluorophenyl)ethyl]amino}(3-pyridyl))carboxamide], the IC50 was determined as 48 nM.

On to `N#Cc1ccccc1-c1ccc(C(=O)NC[C@H]2CCN2C(=O)[C@@H](N)CCCN)c(NCCc2cccc(F)c2)n1` [N-{[(2R)-1-((2S)-2,5-diaminopentanoyl)azetidin-2-yl]methyl}(6-(2-cyanophenyl)-2-{[2-(3-fluorophenyl)ethyl]amino}(3-pyridyl))carboxamide], for which the IC50 was determined as 274 nM.

`Cn1cc(-c2nc(NCCc3cccc(F)c3)c(C(=O)NC[C@H]3CCCN3C(=O)[C@@H](N)CCCN)cc2F)cn1` [N-{[(2R)-1-((2S)-2,5-diaminopentanoyl)pyrrolidin-2-yl]methyl}(5-fluoro-2-{[2-(3-fluorophenyl)ethyl]amino}-6-(1-methylpyrazol-4-yl)(3-pyridyl))carboxamide]: the IC50 stood at 78 nM.

`N#Cc1ccccc1-c1ccc(C(=O)NC[C@H]2CCCN2C(=O)[C@@H](N)CCCN)c(NCCc2cccc(F)c2)n1` [N-{[(2R)-1-((2S)-2,5-diaminopentanoyl)pyrrolidin-2-yl]methyl}(6-(2-cyanophenyl)-2-{[2-(3-fluorophenyl)ethyl]amino}(3-pyridyl))carboxamide]: the IC50 was determined as 52 nM.

For `N#Cc1ccccc1-c1ccc(C(=O)NC[C@H]2CCN2C(=O)[C@@H](N)CO)c(NCCc2cccc(F)c2)n1` [N-{[(2R)-1-((2S)-2-amino-3-hydroxypropanoyl)azetidin-2-yl]methyl}(6-(2-cyanophenyl)-2-{[2-(3-fluorophenyl)ethyl]amino}(3-pyridyl))carboxamide], the IC50 turned out to be 88 nM.

On to `Cn1cc(-c2nc(NCCc3cccc(F)c3)c(C(=O)NC[C@H]3CCCN3C(=O)[C@@H](N)CO)cc2F)cn1` [N-{[(2R)-1-((2S)-2-amino-3-hydroxypropanoyl)pyrrolidin-2-yl]methyl}(5-fluoro-2-{[2-(3-fluorophenyl)ethyl]amino}-6-(1-methylpyrazol-4-yl)(3-pyridyl))carboxamide], for which the IC50 amounted to 72 nM.

Consider `N[C@@H](CO)C(=O)N1CCCC1CNC(=O)c1cc(F)c(-c2cc[nH]n2)nc1NCCc1cccc(F)c1` (stereo partly drawn) [N-{[(2R)-1-((2S)-2-amino-3-hydroxypropanoyl)pyrrolidin-2-yl]methyl}(5-fluoro-2-{[2-(3-fluorophenyl)ethyl]amino}-6-pyrazol-3-yl(3-pyridyl))carboxamide], for which the IC50 was found to be 269 nM.

For the molecule `N[C@@H](CO)C(=O)N1CCC[C@@H]1CNC(=O)c1cc(F)c(-c2cn[nH]c2)nc1NCCc1cccc(F)c1` [N-{[(2R)-1-((2S)-2-amino-3-hydroxypropanoyl)pyrrolidin-2-yl]methyl}(5-fluoro-2-{[2-(3-fluorophenyl)ethyl]amino}-6-pyrazol-4-yl(3-pyridyl))carboxamide], the IC50 stood at 59 nM.
